Measured values as given in patent publication US20090163461A1, “Ligand for Vesicular Acetylcholine Transporter” (priority 2005, published 2009).

Assays:
VAChT = assay: PET brain imaging of learning disability model (neurolysis) monkeys and healthy monkeys; assay type: in vivo, monkey; conditions: 185-740 MBq i.v., images 15 minutes to 60 minutes after administration
Method: 185-740 MBq of (−)-[^11C]-o-MeVES was administered to a vein of each of learning disability model monkeys (neurolysis monkeys) created by selectively destroying the p75NTR positive cells (ACh neurons) in the right hemisphere of the brain with 192-Saporin (manufactured by Advanced Targeting Systems) and healthy monkeys, and image data were collected using PET for animals (PET; manufactured by Hamamatsu Photonics K.K., SHR-7700) at 10 seconds to 91 minutes after administration. The image data obtained at 15 minutes to 60 minutes after administration were picturized; the photographs thus obtained are shown in FIG. 4.

[1] = Tissue distribution of radioactivity after intravenous injection in rats; assay type: in vivo; conditions: rat
Method: From the tail vein of each rat, an injection containing 20 MBq of (−)-[^11C]-o-MeVES (0.2 ml) was administered. At 5 minutes, 15 minutes, 30 minutes, and 60 minutes after administration, the rats were killed by cervical dislocation, and blood was drawn from the heart using a syringe, after which tissues such as the heart, lungs, liver, and brain were extirpated, and the radioactivity in each tissue was measured using a gamma counter. Each tissue was also weighed.

VAChT in the brain = molecular target: T1, VAChT in the brain (Rattus norvegicus, UniProt Q62666); assay: Rat brain ex vivo autoradiography; assay type: in vivo; conditions: 110-120 MBq i.v., 15 or 30 minutes after administration
T1 construct: from tissue; host or cells: brain of living rats, tissue counted or sectioned after killing
T1 sequence (Q62666 1-530): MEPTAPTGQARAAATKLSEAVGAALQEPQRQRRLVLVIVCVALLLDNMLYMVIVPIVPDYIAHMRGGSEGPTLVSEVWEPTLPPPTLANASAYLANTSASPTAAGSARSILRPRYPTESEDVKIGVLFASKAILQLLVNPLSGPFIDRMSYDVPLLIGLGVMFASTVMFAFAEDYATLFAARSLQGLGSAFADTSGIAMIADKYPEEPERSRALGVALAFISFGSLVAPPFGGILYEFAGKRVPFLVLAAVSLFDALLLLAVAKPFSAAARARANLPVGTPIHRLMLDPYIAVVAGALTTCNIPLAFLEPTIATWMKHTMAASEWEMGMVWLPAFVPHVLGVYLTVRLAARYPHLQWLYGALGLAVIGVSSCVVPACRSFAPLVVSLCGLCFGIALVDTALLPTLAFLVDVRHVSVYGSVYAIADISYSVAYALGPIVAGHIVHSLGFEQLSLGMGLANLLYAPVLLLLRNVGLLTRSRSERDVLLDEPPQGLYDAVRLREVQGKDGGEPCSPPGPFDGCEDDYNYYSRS
Method: To the caudal vein of each rat, 110-120 MBq of (−)-[^11C]-o-MeVES was administered, and the rats were killed by cervical dislocation and had the brain extirpated 15 minutes after administration for the first rat, or 30 minutes after administration for the second rat. The extirpated brain was immediately frozen with dry ice, and a brain section 20 μm in thickness was prepared using a cryomicrotome. The brain section was mounted on a glass plate, this section was dried on a hot plate (60° C.), and images of radioactivity distribution were obtained by radioluminography.

[11CH3]c1ccccc1C1CCN(C2CCCC[C@H]2O)CC1 (single isomer, unassigned; (-)) [(−)-[^11C]-o-MeVES, (−)-[^11C]-2-(4-(2-methylphenyl)piperidino)cyclohexanol]
RI accumulation in healthy monkeys (PET) (VAChT; healthy monkeys): no change in the accumulation
RI accumulation in the cerebral cortex on the neurolysis side compared to the healthy side (PET) (VAChT; neurolysis monkeys): significant reduction in RI accumulation
Radioactivity level blood 5 min ([1]; i.v. 20 MBq, blood, 5 min, % of administered radioactivity per gram of tissue, mean ± S.D. n = 4-6): 0.45 ± 0.04%
Radioactivity level blood 15 min ([1]; i.v. 20 MBq, blood, 15 min, % of administered radioactivity per gram of tissue, mean ± S.D. n = 4-6): 0.27 ± 0.03%
Radioactivity level blood 30 min ([1]; i.v. 20 MBq, blood, 30 min, % of administered radioactivity per gram of tissue, mean ± S.D. n = 4-6): 0.24 ± 0.02%
Radioactivity level blood 60 min ([1]; i.v. 20 MBq, blood, 60 min, % of administered radioactivity per gram of tissue, mean ± S.D. n = 4-6): 0.18 ± 0.02%
Radioactivity level brain 5 min ([1]; i.v. 20 MBq, brain, 5 min, % of administered radioactivity per gram of tissue, mean ± S.D. n = 4-6): 5.47 ± 0.44%
Radioactivity level brain 15 min ([1]; i.v. 20 MBq, brain, 15 min, % of administered radioactivity per gram of tissue, mean ± S.D. n = 4-6): 4.54 ± 0.54%
Radioactivity level brain 30 min ([1]; i.v. 20 MBq, brain, 30 min, % of administered radioactivity per gram of tissue, mean ± S.D. n = 4-6): 4.71 ± 0.45%
Radioactivity level brain 60 min ([1]; i.v. 20 MBq, brain, 60 min, % of administered radioactivity per gram of tissue, mean ± S.D. n = 4-6): 3.86 ± 0.28%
Radioactivity level heart 5 min ([1]; i.v. 20 MBq, heart, 5 min, % of administered radioactivity per gram of tissue, mean ± S.D. n = 4-6): 3.37 ± 0.30%
Radioactivity level heart 15 min ([1]; i.v. 20 MBq, heart, 15 min, % of administered radioactivity per gram of tissue, mean ± S.D. n = 4-6): 1.82 ± 0.19%
Radioactivity level heart 30 min ([1]; i.v. 20 MBq, heart, 30 min, % of administered radioactivity per gram of tissue, mean ± S.D. n = 4-6): 1.52 ± 0.11%
Radioactivity level heart 60 min ([1]; i.v. 20 MBq, heart, 60 min, % of administered radioactivity per gram of tissue, mean ± S.D. n = 4-6): 0.96 ± 0.02%
Radioactivity level kidney 5 min ([1]; i.v. 20 MBq, kidney, 5 min, % of administered radioactivity per gram of tissue, mean ± S.D. n = 4-6): 11.10 ± 4.31%
Radioactivity level kidney 15 min ([1]; i.v. 20 MBq, kidney, 15 min, % of administered radioactivity per gram of tissue, mean ± S.D. n = 4-6): 7.52 ± 0.40%
Radioactivity level kidney 30 min ([1]; i.v. 20 MBq, kidney, 30 min, % of administered radioactivity per gram of tissue, mean ± S.D. n = 4-6): 6.02 ± 0.09%
Radioactivity level kidney 60 min ([1]; i.v. 20 MBq, kidney, 60 min, % of administered radioactivity per gram of tissue, mean ± S.D. n = 4-6): 4.15 ± 0.50%
Radioactivity level liver 5 min ([1]; i.v. 20 MBq, liver, 5 min, % of administered radioactivity per gram of tissue, mean ± S.D. n = 4-6): 2.58 ± 0.23%
Radioactivity level liver 15 min ([1]; i.v. 20 MBq, liver, 15 min, % of administered radioactivity per gram of tissue, mean ± S.D. n = 4-6): 2.93 ± 0.38%
Radioactivity level liver 30 min ([1]; i.v. 20 MBq, liver, 30 min, % of administered radioactivity per gram of tissue, mean ± S.D. n = 4-6): 3.22 ± 0.76%
Radioactivity level liver 60 min ([1]; i.v. 20 MBq, liver, 60 min, % of administered radioactivity per gram of tissue, mean ± S.D. n = 4-6): 3.28 ± 0.32%
Radioactivity level lung 5 min ([1]; i.v. 20 MBq, lung, 5 min, % of administered radioactivity per gram of tissue, mean ± S.D. n = 4-6): 16.55 ± 2.56%
Radioactivity level lung 15 min ([1]; i.v. 20 MBq, lung, 15 min, % of administered radioactivity per gram of tissue, mean ± S.D. n = 4-6): 10.38 ± 2.48%
Radioactivity level lung 30 min ([1]; i.v. 20 MBq, lung, 30 min, % of administered radioactivity per gram of tissue, mean ± S.D. n = 4-6): 8.74 ± 0.34%
Radioactivity level lung 60 min ([1]; i.v. 20 MBq, lung, 60 min, % of administered radioactivity per gram of tissue, mean ± S.D. n = 4-6): 4.81 ± 0.76%
Radioactivity level muscle 5 min ([1]; i.v. 20 MBq, muscle, 5 min, % of administered radioactivity per gram of tissue, mean ± S.D. n = 4-6): 1.57 ± 0.27%
Radioactivity level muscle 15 min ([1]; i.v. 20 MBq, muscle, 15 min, % of administered radioactivity per gram of tissue, mean ± S.D. n = 4-6): 1.42 ± 0.44%
Radioactivity level muscle 30 min ([1]; i.v. 20 MBq, muscle, 30 min, % of administered radioactivity per gram of tissue, mean ± S.D. n = 4-6): 1.18 ± 0.24%
Radioactivity level muscle 60 min ([1]; i.v. 20 MBq, muscle, 60 min, % of administered radioactivity per gram of tissue, mean ± S.D. n = 4-6): 1.00 ± 0.16%
Radioactivity level pancreas 5 min ([1]; i.v. 20 MBq, pancreas, 5 min, % of administered radioactivity per gram of tissue, mean ± S.D. n = 4-6): 8.44 ± 1.93%
Radioactivity level pancreas 15 min ([1]; i.v. 20 MBq, pancreas, 15 min, % of administered radioactivity per gram of tissue, mean ± S.D. n = 4-6): 12.13 ± 2.23%
Radioactivity level pancreas 30 min ([1]; i.v. 20 MBq, pancreas, 30 min, % of administered radioactivity per gram of tissue, mean ± S.D. n = 4-6): 11.53 ± 2.67%
Radioactivity level pancreas 60 min ([1]; i.v. 20 MBq, pancreas, 60 min, % of administered radioactivity per gram of tissue, mean ± S.D. n = 4-6): 10.67 ± 1.22%
Radioactivity level small intestine 5 min ([1]; i.v. 20 MBq, small intestine, 5 min, % of administered radioactivity per gram of tissue, mean ± S.D. n = 4-6): 6.19 ± 0.58%
Radioactivity level small intestine 15 min ([1]; i.v. 20 MBq, small intestine, 15 min, % of administered radioactivity per gram of tissue, mean ± S.D. n = 4-6): 8.76 ± 1.66%
Radioactivity level small intestine 30 min ([1]; i.v. 20 MBq, small intestine, 30 min, % of administered radioactivity per gram of tissue, mean ± S.D. n = 4-6): 8.48 ± 1.85%
Radioactivity level small intestine 60 min ([1]; i.v. 20 MBq, small intestine, 60 min, % of administered radioactivity per gram of tissue, mean ± S.D. n = 4-6): 8.90 ± 0.50%
Radioactivity level spleen 5 min ([1]; i.v. 20 MBq, spleen, 5 min, % of administered radioactivity per gram of tissue, mean ± S.D. n = 4-6): 4.97 ± 1.06%
Radioactivity level spleen 15 min ([1]; i.v. 20 MBq, spleen, 15 min, % of administered radioactivity per gram of tissue, mean ± S.D. n = 4-6): 5.90 ± 0.51%
Radioactivity level spleen 30 min ([1]; i.v. 20 MBq, spleen, 30 min, % of administered radioactivity per gram of tissue, mean ± S.D. n = 4-6): 5.56 ± 0.52%
Radioactivity level spleen 60 min ([1]; i.v. 20 MBq, spleen, 60 min, % of administered radioactivity per gram of tissue, mean ± S.D. n = 4-6): 4.24 ± 0.35%
brain accumulation ([1]; i.v., 5-60 min): retainable
organ accumulation / exposure ([1]; i.v., 5-60 min): no organs showing particularly high accumulation
local distribution in the brain (autoradiography) (VAChT in the brain): agreed well with the in vitro local distribution of (−)-[^3H]-vesamicol
